Experimental data as given in ChEMBL document CHEMBL1208782, “Synthesis and pharmacological validation of a novel series of non-steroidal FXR agonists” (Bioorg Med Chem Lett, 2010).

Key:
Assay type in all cases: functional, cell-based
[1] = molecular target: T1, Bile acid receptor (Homo sapiens) (UniProt Q96RI1); test: Agonist activity at human […] FXR LBD expressed in HEK293 cells coexpressing GAL4-DNA bindig domain and pFRluc by mammalian one-hybrid assay relative to GW-4064
T1 sequence (whole entry): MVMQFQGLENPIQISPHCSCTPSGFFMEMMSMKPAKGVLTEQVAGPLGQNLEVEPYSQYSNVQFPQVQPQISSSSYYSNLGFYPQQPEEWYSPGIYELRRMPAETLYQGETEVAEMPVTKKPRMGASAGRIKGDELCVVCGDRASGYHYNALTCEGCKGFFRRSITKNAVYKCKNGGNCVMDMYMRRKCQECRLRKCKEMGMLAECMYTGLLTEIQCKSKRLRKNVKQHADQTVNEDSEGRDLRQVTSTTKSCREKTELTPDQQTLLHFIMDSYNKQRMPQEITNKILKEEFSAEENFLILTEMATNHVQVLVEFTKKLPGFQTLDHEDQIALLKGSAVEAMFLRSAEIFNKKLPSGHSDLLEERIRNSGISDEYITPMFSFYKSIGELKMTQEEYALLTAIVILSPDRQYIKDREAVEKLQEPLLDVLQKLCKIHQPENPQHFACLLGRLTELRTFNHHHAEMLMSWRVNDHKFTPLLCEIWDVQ

[2] = molecular target: T2, Retinoic acid receptor alpha (Homo sapiens, UniProt P10276); test: Agonist activity at RARalpha-LBD expressed in HEK293 cells assessed as Gal4-DBD interaction by cellular mammalian one hybrid assay
T2 sequence (P10276 whole entry): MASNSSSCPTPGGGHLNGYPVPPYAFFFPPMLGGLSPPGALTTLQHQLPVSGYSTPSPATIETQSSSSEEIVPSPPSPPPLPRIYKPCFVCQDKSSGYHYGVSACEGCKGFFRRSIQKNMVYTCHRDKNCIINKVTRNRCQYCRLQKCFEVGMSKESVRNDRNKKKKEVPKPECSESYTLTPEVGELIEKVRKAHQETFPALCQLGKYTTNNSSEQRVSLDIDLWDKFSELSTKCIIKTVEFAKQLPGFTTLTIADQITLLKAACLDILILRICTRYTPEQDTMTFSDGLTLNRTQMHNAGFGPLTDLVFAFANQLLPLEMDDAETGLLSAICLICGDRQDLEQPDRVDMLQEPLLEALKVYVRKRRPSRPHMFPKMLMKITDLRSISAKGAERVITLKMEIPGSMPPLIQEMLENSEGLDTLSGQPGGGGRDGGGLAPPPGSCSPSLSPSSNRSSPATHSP

[3] = molecular target: T3, Retinoic acid receptor beta (Homo sapiens, UniProt P10826); test: Agonist activity at RARbeta-LBD expressed in HEK293 cells assessed as Gal4-DBD interaction by cellular mammalian one hybrid assay
T3 sequence (P10826 whole entry): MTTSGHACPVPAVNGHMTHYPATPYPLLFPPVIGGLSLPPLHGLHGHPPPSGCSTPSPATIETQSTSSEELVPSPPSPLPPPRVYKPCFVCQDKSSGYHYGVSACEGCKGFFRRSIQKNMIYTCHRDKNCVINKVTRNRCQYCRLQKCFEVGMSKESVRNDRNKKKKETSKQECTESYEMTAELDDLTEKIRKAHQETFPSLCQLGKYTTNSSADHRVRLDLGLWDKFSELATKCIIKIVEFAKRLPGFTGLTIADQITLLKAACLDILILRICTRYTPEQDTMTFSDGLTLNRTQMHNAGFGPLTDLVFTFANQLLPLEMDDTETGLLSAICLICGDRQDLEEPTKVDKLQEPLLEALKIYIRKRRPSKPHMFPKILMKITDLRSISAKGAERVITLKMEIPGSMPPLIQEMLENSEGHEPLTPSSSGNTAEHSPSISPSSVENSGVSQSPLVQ

[4] = molecular target: T4, Vitamin D3 receptor (Homo sapiens, UniProt P11473); test: Agonist activity at VDR-LBD expressed in HEK293 cells assessed as Gal4-DBD interaction by cellular mammalian one hybrid assay
T4 sequence (P11473 whole entry): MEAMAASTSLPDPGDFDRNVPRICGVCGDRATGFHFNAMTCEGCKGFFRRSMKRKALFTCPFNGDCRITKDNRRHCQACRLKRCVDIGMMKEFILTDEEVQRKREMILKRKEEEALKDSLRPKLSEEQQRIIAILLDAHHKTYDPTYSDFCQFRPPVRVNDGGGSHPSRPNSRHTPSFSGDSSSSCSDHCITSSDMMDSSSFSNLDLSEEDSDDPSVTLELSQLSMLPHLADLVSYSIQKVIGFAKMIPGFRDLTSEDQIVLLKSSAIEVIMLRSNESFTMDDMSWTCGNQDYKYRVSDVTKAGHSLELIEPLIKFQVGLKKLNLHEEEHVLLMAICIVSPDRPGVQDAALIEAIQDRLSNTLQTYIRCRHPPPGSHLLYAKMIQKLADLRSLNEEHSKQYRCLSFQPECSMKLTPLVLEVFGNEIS

[5] = molecular target: T5, Androgen receptor (Homo sapiens) (UniProt P10275); test: Agonist activity at androgen receptor-LBD expressed in HEK293 cells assessed as Gal4-DBD interaction by cellular mammalian one hybrid assay relative to androgen
T5 sequence (whole entry): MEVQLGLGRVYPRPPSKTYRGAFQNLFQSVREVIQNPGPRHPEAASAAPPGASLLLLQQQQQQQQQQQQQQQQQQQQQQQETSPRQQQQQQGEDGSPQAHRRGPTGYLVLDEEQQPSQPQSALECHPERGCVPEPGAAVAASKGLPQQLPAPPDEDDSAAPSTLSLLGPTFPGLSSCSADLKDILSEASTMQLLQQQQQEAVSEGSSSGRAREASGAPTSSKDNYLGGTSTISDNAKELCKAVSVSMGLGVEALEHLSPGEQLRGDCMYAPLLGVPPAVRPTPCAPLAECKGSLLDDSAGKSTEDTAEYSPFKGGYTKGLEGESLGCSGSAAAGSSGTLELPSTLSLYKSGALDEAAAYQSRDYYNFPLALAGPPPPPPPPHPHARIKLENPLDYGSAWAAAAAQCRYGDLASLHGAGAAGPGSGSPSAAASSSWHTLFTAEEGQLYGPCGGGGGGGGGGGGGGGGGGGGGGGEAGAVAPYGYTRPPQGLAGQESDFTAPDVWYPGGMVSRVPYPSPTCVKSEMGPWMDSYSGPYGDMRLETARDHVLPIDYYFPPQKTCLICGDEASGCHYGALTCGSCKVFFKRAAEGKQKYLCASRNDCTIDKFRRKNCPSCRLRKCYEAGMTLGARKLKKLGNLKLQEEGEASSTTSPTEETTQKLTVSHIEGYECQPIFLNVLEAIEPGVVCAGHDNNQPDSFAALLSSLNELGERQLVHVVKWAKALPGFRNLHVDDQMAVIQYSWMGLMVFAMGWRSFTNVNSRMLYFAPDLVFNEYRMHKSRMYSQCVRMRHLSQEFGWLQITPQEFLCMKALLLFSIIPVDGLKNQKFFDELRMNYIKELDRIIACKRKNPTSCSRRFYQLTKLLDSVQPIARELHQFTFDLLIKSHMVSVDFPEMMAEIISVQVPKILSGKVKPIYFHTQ

| SMILES | Efficacy [1] | EC50 [2] | EC50 [3] | EC50 [4] | Efficacy [5] |
| --- | --- | --- | --- | --- | --- |
| CN(Cc1cccc(C(=O)O)c1)c1ccc(OCc2c(-c3c(Cl)cccc3Cl)noc2C2CC2)nc1C(F)(F)F | 79% | > 10 µM | > 10 µM | > 10 µM | 0% |
| CN(Cc1ccc(C(=O)O)cc1)c1ccc(OCc2c(-c3c(Cl)cccc3Cl)noc2C2CC2)nc1C(F)(F)F | 81% | > 10 µM | > 10 µM | > 10 µM | 0% |
| CC(C)c1onc(-c2c(Cl)cccc2Cl)c1COc1ccc(N(C)Cc2ccc(C(=O)O)cc2)c(C(F)(F)F)n1 | 75% | > 10 µM | > 10 µM | > 10 µM | 0% |
